Patent US20230150951A1, “2,5- OR 2,6-DISUBSTITUTED HYDROQUINONE DERIVATIVES WITH AT LEAST ONE CARBOXY, SULFO OR AMIDO GROUP USEFUL AS MEDICAMENTS” (OM PHARMA SA, priority 2020, published 2023)
Read-outs that look alike come from different tables or passages of the source.

Key:
Format in all cases: cell-based
Human neutrophils = assay: Neutrophil adhesion under static conditions; settings: fMLP-stimulated adhesion to fibrinogen; method: 40 μM and 80 μM, concentration of the value not stated
How it was run: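 Donor buffy-coat neutrophils (3×10^6/ml, PBS with Ca/Mg, 10% FCS, pH 7.2) preincubated 30 min at 37° C with 40 μM or 80 μM compound, then stimulated 1 min at 37° C with 1 nM fMLP on fibrinogen-coated glass. Adherent cells fixed and counted by computer; mean ± SD, unpaired t-test.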

IL-1beta = assay: Cytokine release after LPS induction on human whole blood: IL-1β
Description: (§1) Aim of this in vitro method is to assess compounds effects on release of a panel of cytokines from whole blood following lipopolysaccharide (LPS) induced inflammatory reaction. Whole blood was incubated with compounds for 1 h prior to LPS induction. Cytokine levels in blood were measured using a multiplex FACS-based panel.
(§2) IC50 values determined for the tested compounds expressed in microM [μM] and the values for the inhibition of cytokines were listed for each compound.
(§3) Effect on cytokines release after LPS induction was performed on the compounds dissolved in DMSO or H2O to reach 10-fold concentrated stock solutions and dissolved in culture media.
(§4) Test system: Whole blood was removed from a single donor (into lithium heparin coated tubes; BD Vacutainer; 367886) and diluted 1:5 with RPMI 1640 (Thermo Fisher, 61870036). Within 30 minutes of sampling, blood was incubated with compounds for 1 h prior to LPS stimulation (O111:B4—Sigma L4391; 10 ng/ml final concentration). Stimulation continued under standard cell culture conditions (37° C. with 5% CO2) overnight (18 h), after which plates were centrifuged and supernatant removed and frozen at −80° C. until used for analyses.
(§5) Dilution of test compounds: 10×concentrated solutions (concerning to the final assay concentrations) of each test compound were prepared with the appropriate solvent (in DMSO or in water). These 10× compound solutions (10 μl) were then added to 90 μl pre-diluted whole blood (whole blood: RPMI1640, 1:5) resulting in the final assay concentration.
(§6) Test method: Diluted whole blood (80 μl) was pre-incubated with compounds (10 μl) to give final assay concentrations of 100, 30, 10, 3, 1, 0.3 and 0.1×10^−6M. Blood was incubated at 37° C. with 5% CO2 for 1 h. LPS was diluted in cell culture media to a concentration of […]; 10 μl was added to the whole blood to give a final concentration of 10 ng/ml. Plates were incubated at 37° C. for 18 h. Plates were centrifuged at 3,000 RPM for 5 minutes at 4° C. and supernatant removed and frozen at −80° C. until FACS analysis was carried out.
(§7) Cytokine release was measured using a custom multiplex system (ELISA Genie) according to manufacturers instructions. Prepared samples were run on an Attune NxT flow cytometer (Thermo Fisher).
(§8) Quantification of cytokine release inhibition: known concentration standards were run as part of the cytokine panel to allow quantification of each cytokine concentration in each sample. This was carried out using FCAP Array v3.0 software.
(§9) Results: The dose response relationship on cytokine release following LPS induction of inflammatory response in whole blood was assessed for all compounds. IC50 values were determined for each compound for a panel of cytokines (GM-CSF, IFN-gamma, IL-1beta, IL-2, IL-4, IL-5, IL-6, IL-8, IL-9, IL-10, IL-12p40, IL-13, IL-17A, IL-17F, IL-18, IL-21, IL-22, IL-33, TGF-beta, TNF-alpha, TNF-beta).

IL-2 = assay: Cytokine release after LPS induction on human whole blood: IL-2
Description: as §1, §2, §3, §4, §5, §6, §7, §8, §9

IL-6 = assay: Cytokine release after LPS induction on human whole blood: IL-6
Description: as §1, §2, §3, §4, §5, §6, §7, §8, §9

IL-9 = assay: Cytokine release after LPS induction on human whole blood: IL-9
Description: as §1, §2, §3, §4, §5, §6, §7, §8, §9

IL-12p70 = assay: Cytokine release after LPS induction on human whole blood: IL-12p70
IL-13 = assay: Cytokine release after LPS induction on human whole blood: IL-13
Description: as §1, §2, §3, §4, §5, §6, §7, §8, §9

IL-17A = assay: Cytokine release after LPS induction on human whole blood: IL-17A
Description: as §1, §2, §3, §4, §5, §6, §7, §8, §9

IL-18 = assay: Cytokine release after LPS induction on human whole blood: IL-18
Description: as §1, §2, §3, §4, §5, §6, §7, §8, §9

IL-33 = assay: Cytokine release after LPS induction on human whole blood: IL-33
Description: as §1, §2, §3, §4, §5, §6, §7, §8, §9

TNF-beta = assay: Cytokine release after LPS induction on human whole blood: TNFβ
Description: as §1, §2, §3, §4, §5, §6, §7, §8, §9

[1] = Homo sapiens, LPS 10 ng/ml, 18 h, read-out: Whole Blood: IL-1β IC50
[2] = human whole blood, inhibition of LPS induced inflammation, read-out: IC50 IL-1b
[3] = Homo sapiens, LPS 10 ng/ml, 18 h, read-out: Whole Blood: IL-2 IC50
[4] = human whole blood, inhibition of LPS induced inflammation, read-out: IC50 IL-2
[5] = Homo sapiens, LPS 10 ng/ml, 18 h, read-out: Whole Blood: IL-6 IC50
[6] = human whole blood, inhibition of LPS induced inflammation, read-out: IC50 IL-6
[7] = Homo sapiens, LPS 10 ng/ml, 18 h, read-out: Whole Blood: IL-9 IC50
[8] = human whole blood, inhibition of LPS induced inflammation, read-out: IC50 IL-9
[9] = Homo sapiens, LPS 10 ng/ml, 18 h, read-out: Whole Blood: IL-12p70 IC50
[10] = human whole blood, inhibition of LPS induced inflammation, read-out: IC50 IL-12p70
[11] = Homo sapiens, LPS 10 ng/ml, 18 h, read-out: Whole Blood: IL-13 IC50
[12] = human whole blood, inhibition of LPS induced inflammation, read-out: IC50 IL-13
[13] = Homo sapiens, LPS 10 ng/ml, 18 h, read-out: Whole Blood: IL-17A IC50
[14] = human whole blood, inhibition of LPS induced inflammation, read-out: IC50 IL-17A
[15] = Homo sapiens, LPS 10 ng/ml, 18 h, read-out: Whole Blood: IL-18 IC50
[16] = human whole blood, inhibition of LPS induced inflammation, read-out: IC50 IL-18
[17] = Homo sapiens, LPS 10 ng/ml, 18 h, read-out: Whole Blood: IL-33 IC50
[18] = human whole blood, inhibition of LPS induced inflammation, read-out: IC50 IL-33
[19] = Homo sapiens, LPS 10 ng/ml, 18 h, read-out: Whole Blood: TNF β IC50
[20] = human whole blood, inhibition of LPS induced inflammation, read-out: IC50 β

## O=C(O)c1cc(O)c(C(=O)Nc2ccccc2-c2nnn[nH]2)cc1O [Ia-001a-Tz, 4-(2-(1H-tetrazol-5-yl)phenyl-aminocarbonyl)-2,5-dihydroxybenzoic acid]
Human neutrophils
  Neutrophil adhesion inhibition: 69.75%
IL-1beta; [1]
  IC50: > 100 µM
IL-1beta; [2]
  IC50: 100 µM
IL-2; [3]
  IC50: 7.99 µM
IL-2; [4]
  IC50: 7.99 µM
IL-6; [5]
  IC50: 0.75 µM
IL-6; [6]
  IC50: 0.75 µM
IL-9; [7]
  IC50: 8.63 µM
IL-9; [8]
  IC50: 8.63 µM
IL-12p70; [9]
  IC50: 32.4 µM
IL-12p70; [10]
  IC50: 32.4 µM
IL-13; [11]
  IC50: 32.1 µM
IL-13; [12]
  IC50: 32.1 µM
IL-17A; [13]
  IC50: 0.11 µM
IL-17A; [14]
  IC50: 0.11 µM
IL-18; [15]
  IC50: > 100 µM
IL-18; [16]
  IC50: 100 µM
IL-33; [17]
  IC50: 23.6 µM
IL-33; [18]
  IC50: 23.6 µM
TNF-beta; [19]
  IC50: 53 µM
TNF-beta; [20]
  IC50: 53 µM

## O=C(O)c1cc(NC(=O)c2cc(O)c(C(=O)Nc3ccccc3-c3nnn[nH]3)cc2O)ccc1O [Ic-001a-Tz/004a, 5-(4-(2-(1H-tetrazol-5-yl)phenylaminocarbonyl)-2,5-dihydroxybenzamido)-2-hydroxy benzoic acid]
Human neutrophils
  Neutrophil adhesion inhibition: 96.99%
IL-1beta; Homo sapiens, 18 h, read-out: Whole Blood: IL-1β IC50
  IC50: > 100 µM
IL-1beta; Homo sapiens, read-out: IC50 IL-1b
  IC50: 100 µM
IL-2; Homo sapiens, 18 h, read-out: Whole Blood: IL-2 IC50
  IC50: 4.91 µM
IL-2; Homo sapiens, read-out: IC50 IL-2
  IC50: 4.91 µM
IL-6; Homo sapiens, 18 h, read-out: Whole Blood: IL-6 IC50
  IC50: 3.04 µM
IL-6; Homo sapiens, read-out: IC50 IL-6
  IC50: 3.04 µM
IL-9; Homo sapiens, 18 h, read-out: Whole Blood: IL-9 IC50
  IC50: 8.48 µM
IL-9; Homo sapiens, read-out: IC50 IL-9
  IC50: 8.48 µM
IL-12p70; Homo sapiens, 18 h, read-out: Whole Blood: IL-12p70 IC50
  IC50: 12.2 µM
IL-12p70; Homo sapiens, read-out: IC50 IL-12p70
  IC50: 12.2 µM
IL-13; Homo sapiens, 18 h, read-out: Whole Blood: IL-13 IC50
  IC50: 1.5 µM
IL-13; Homo sapiens, read-out: IC50 IL-13
  IC50: 1.5 µM
IL-17A; Homo sapiens, 18 h, read-out: Whole Blood: IL-17A IC50
  IC50: 0.02 µM
IL-17A; Homo sapiens, read-out: IC50 IL-17A
  IC50: 0.02 µM
IL-18; Homo sapiens, 18 h, read-out: Whole Blood: IL-18 IC50
  IC50: 46.6 µM
IL-18; Homo sapiens, read-out: IC50 IL-18
  IC50: 46.6 µM
IL-33; Homo sapiens, 18 h, read-out: Whole Blood: IL-33 IC50
  IC50: 1.67 µM
IL-33; Homo sapiens, read-out: IC50 IL-33
  IC50: 1.67 µM
TNF-beta; Homo sapiens
  IC50: 3.02 µM
TNF-beta; Homo sapiens, 18 h, read-out: Whole Blood: TNF β IC50
  IC50: 3.02 µM

## O=C(O)c1cc(O)c(C(=O)Nc2ccccc2S(=O)(=O)O)cc1O [Ia-001c, 2,5-dihydroxy-4-(2-sulfophenylaminocarbonyl)benzoic acid]
Human neutrophils
  Neutrophil adhesion inhibition: 31.33%
IL-1beta; [1]
  IC50: > 100 µM
IL-1beta; [2]
  IC50: 100 µM
IL-2; [3]
  IC50: 12.8 µM
IL-2; [4]
  IC50: 12.8 µM
IL-6; [5]
  IC50: 0.95 µM
IL-6; [6]
  IC50: 0.95 µM
IL-9; [7]
  IC50: 46.9 µM
IL-9; [8]
  IC50: 46.9 µM
IL-12p70; [9]
  IC50: 0.44 µM
IL-12p70; [10]
  IC50: 0.44 µM
IL-13; [11]
  IC50: 86.1 µM
IL-13; [12]
  IC50: 86.1 µM
IL-17A; [13]
  IC50: 0.09 µM
IL-17A; [14]
  IC50: 0.09 µM
IL-18; [15]
  IC50: > 100 µM
IL-18; [16]
  IC50: 100 µM
IL-33; [17]
  IC50: > 100 µM
IL-33; [18]
  IC50: 100 µM
TNF-beta; [19]
  IC50: 29.7 µM
TNF-beta; [20]
  IC50: 29.7 µM

## O=C(O)c1cc(O)cc(CS(=O)(=O)Cc2cc(O)cc(C(=O)O)c2O)c1O [IVc-059a, 3-((2,5-Dihydroxy-3-carboxyphenyl)methylsulfonylmethyl)-2,5-dihydroxybenzoic acid]
Human neutrophils
  Neutrophil adhesion inhibition: 10%
IL-1beta; [1]
  IC50: 38.6 µM
IL-1beta; [2]
  IC50: 38.6 µM
IL-2; [3]
  IC50: 21.2 µM
IL-2; [4]
  IC50: 21.2 µM
IL-6; [5]
  IC50: 0.11 µM
IL-6; [6]
  IC50: 0.11 µM
IL-9; [7]
  IC50: 0.4 µM
IL-9; [8]
  IC50: 0.4 µM
IL-12p70; [9]
  IC50: 42 µM
IL-12p70; [10]
  IC50: 42 µM
IL-13; [11]
  IC50: > 100 µM
IL-13; [12]
  IC50: 100 µM
IL-17A; [13]
  IC50: 0.16 µM
IL-17A; [14]
  IC50: 0.16 µM
IL-18; [15]
  IC50: > 100 µM
IL-18; [16]
  IC50: 100 µM
IL-33; [17]
  IC50: 27.5 µM
IL-33; [18]
  IC50: 27.5 µM
TNF-beta; [19]
  IC50: 0.33 µM
TNF-beta; [20]
  IC50: 0.33 µM

## O=C(O)c1cc(O)ccc1NC(=O)c1cc(O)cc(C(=O)Nc2ccc(O)cc2C(=O)O)c1O [IIc-009a, 2-(3-(2-carboxy-4-hydroxyphenylaminocarbonyl)-2,5-dihydroxybenzamido)-5-hydroxyl benzoic acid]
Human neutrophils
  Neutrophil adhesion inhibition: 53.15%
IL-1beta; [1]
  IC50: > 100 µM
IL-1beta; [2]
  IC50: 100 µM
IL-2; [3]
  IC50: 19.6 µM
IL-2; [4]
  IC50: 19.6 µM
IL-6; [5]
  IC50: 0.27 µM
IL-6; [6]
  IC50: 0.27 µM
IL-9; [7]
  IC50: 18.9 µM
IL-9; [8]
  IC50: 18.9 µM
IL-12p70; [9]
  IC50: > 100 µM
IL-12p70; [10]
  IC50: 100 µM
IL-13; [11]
  IC50: 0.13 µM
IL-13; [12]
  IC50: 0.13 µM
IL-17A; [13]
  IC50: 0.001 µM
IL-17A; [14]
  IC50: 0.001 µM
IL-18; [15]
  IC50: 2.95 µM
IL-18; [16]
  IC50: 2.95 µM
IL-33; [17]
  IC50: 0.29 µM
IL-33; [18]
  IC50: 0.29 µM
TNF-beta; [19]
  IC50: 6.94 µM
TNF-beta; [20]
  IC50: 6.94 µM
